One assay concerns A549. In words: Cell-based assay, anti-proliferative activity (Cell Counting Kit-8, 72 hours). The following applies: Homo sapiens, read-out: A549 IC50. The procedure, abridged:
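After compound exposure of cells in 96-well plates, growth was measured colorimetrically and converted into IC50 values.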
Background: Tetrazolium dyes change colour on reduction, which living cells bring about.

The target in another assay is SUV39H2 (Homo sapiens (Human), UniProt Q9H5I1). In words: biochemical. The following applies: 3H-SAM 100 nM, H3 Histone Peptide 350 nM, room temperature 3 hours. The format is biochemical. On the procedure:
Assay buffer (4 μL) was added into all the wells, including test compound and control wells (except for Sinefungin control wells), using the Multidrop Combi. The plate was centrifuged at 1000 rpm for 1 min. […] SUV39H2 (8 μL, final conc: optimized for each lot of the enzyme based on specific activity) was added by using the Multidrop Combi. The assay plate was centrifuged at 1000 rpm for 1 min. Assay buffer was used as background control, and incubated at room temperature for 3 hours. The reaction was stopped with 20 μL of 2.5 mg/mL Streptavidin SPA beads (final conc. 50 μg/well) in buffer using the Multidrop Combi and centrifuged for 1 min. The plate was loaded into the Trilux-Microbeta counter and a delayed read of 10 hours was made. The radioactive signal was measured at 1 min/well. Sinefungin and the internal standard compound were used as tool compounds to determine assay performance.
• The following calculations were made using the obtained CPM raw data: Software used: XLFit from IDBS.
For each test plate the following results were calculated: • Average, Standard Deviation, and % CV of Background Controls • Average, Standard Deviation, and % CV of Positive Controls • Z′ value of the plate • IC50 values of standard and test compounds (in nM) • R^2 value of fitted concentration response curve • Hill slope coefficient of fitted concentration response curve • Signal to Noise Ratio

Where [1] appears, read: A549 cells, 72 hours exposure, Cell Counting Kit-8.

Where a name gives a salt, the structure may show the parent alone. Read-outs that look alike come from different tables or passages of the source.

SUV39H2, sequence (Q9H5I1 whole entry): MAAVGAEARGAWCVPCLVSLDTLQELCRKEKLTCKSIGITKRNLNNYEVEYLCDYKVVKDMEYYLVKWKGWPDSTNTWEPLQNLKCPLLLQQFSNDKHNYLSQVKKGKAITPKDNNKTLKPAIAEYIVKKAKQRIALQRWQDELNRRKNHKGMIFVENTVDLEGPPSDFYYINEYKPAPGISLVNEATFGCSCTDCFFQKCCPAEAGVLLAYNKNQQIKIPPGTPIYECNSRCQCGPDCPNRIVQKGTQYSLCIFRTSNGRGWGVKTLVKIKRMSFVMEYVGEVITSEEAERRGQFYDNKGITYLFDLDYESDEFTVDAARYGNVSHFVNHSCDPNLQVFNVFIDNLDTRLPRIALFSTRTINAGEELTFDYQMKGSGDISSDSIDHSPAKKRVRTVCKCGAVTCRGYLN

Consider `COc1cc(OC)c(-c2cn3ccc(N4CCN(c5ncnc(N6CCOCC6)n5)CC4)cc3n2)cc1Cl` [Example 449, 4-(4-(4-(2-(5-chloro-2,4-dimethoxyphenyl)imidazo[1,2-a]pyridin-7-yl)piperazin-1-yl)-1,3,5-triazin-2-yl)morpholine], for which the IC50 worked out at 870 nM with A549 (A549, 72 h) and 17.5 nM at SUV39H2.

Take `COc1cc(OC)c(-c2cn3cc(-c4ccc(C#N)cc4)c(N4CC[C@H](N)C4)cc3n2)cc1Cl` [Example 445, (S)-4-(7-(3-aminopyrrolidin-1-yl)-2-(5-chloro-2,4-dimethoxyphenyl)imidazo[1,2-a]pyridin-6-yl)benzonitrile dihydrochloride]: the IC50 in the assay on A549 (A549, 72 h) came out at 940 nM; on SUV39H2, 85.9 nM.

`COc1cc(OC)c(-c2cn3ccc(N4CCN(c5cc(N(C)C)nc(N)n5)CC4)cc3n2)cc1Cl` [Example 389, 6-(4-(2-(5-chloro-2,4-dimethoxyphenyl)imidazo[1,2-a]pyridin-7-yl)piperazin-1-yl)-N^4,N^4-dimethylpyrimidine-2,4-diamine dihydrochloride]: the IC50 in the assay with A549 (A549, 72 h) is 750 nM; at SUV39H2, 39.3 nM.

Turning to `COc1cc(OC)c(-c2cn3ccc(N[C@H]4CC[C@@H](N(C)Cc5ccccc5C)CC4)cc3n2)cc1Cl` [Example 348, cis-N^1-(2-(5-chloro-2,4-dimethoxyphenyl)imidazo[1,2-a]pyridin-7-yl)-N^4-methyl-N^4-(2-methylbenzyl)cyclohexane-1,4-diamine bis(2,2,2-trifluoroacetate)], the IC50 came to 750 nM with A549 (setting [1]) and 31.2 nM on SUV39H2.

As to `COc1cc(OC)c(-c2cn3ccc(N4CC[C@H](NCc5ccc(NC(=O)OC(C)(C)C)cc5)C4)cc3n2)cc1Cl` [Example 386, (S)-tert-butyl (4-(((1-(2-(5-chloro-2,4-dimethoxyphenyl)imidazo[1,2-a]pyridin-7-yl)pyrrolidin-3-yl)amino)methyl)phenyl)carbamate], the values for the IC50 in the assay on A549 (setting [1]) and against SUV39H2 were 730 nM and 24.8 nM, respectively.

Regarding `COc1cc(OC)c(-c2cn3ccc(N4CCN(c5ccnc(NCCO)n5)CC4)cc3n2)cc1Cl` [Example 334, 2-((4-(4-(2-(5-chloro-2,4-dimethoxyphenyl)imidazo[1,2-a]pyridin-7-yl)piperazin-1-yl)pyrimidin-2-yl)amino)ethanol], the half-maximal inhibitory concentration (IC50) against SUV39H2 worked out at 21.3 nM.

For the molecule `COc1cc(OC)c(-c2cn3ccc(N[C@H]4CC[C@@H](NCc5ccc(F)cc5)CC4)cc3n2)cc1Cl` [Example 326, cis-N^1-(2-(5-chloro-2,4-dimethoxyphenyl)imidazo[1,2-a]pyridin-7-yl)-N^4-(4-fluorobenzyl)cyclohexane-1,4-diamine], the IC50 was 660 nM in the assay with A549 (setting [1]) and 20.3 nM against SUV39H2.

Turning to `COc1cc(OC)c(-c2cn3ccc(N4CCN(c5ccnc(NCC(C)O)n5)CC4)cc3n2)cc1Cl` (centres unmarked) [Example 399, 1-((4-(4-(2-(5-chloro-2,4-dimethoxyphenyl)imidazo[1,2-a]pyridine-7-yl)piperazin-1-yl)pyrimidin-2-yl)amino)propan-2-ol], the values for the IC50 in the assay on A549 (setting [1]) and against SUV39H2 were 660 nM and 11.7 nM, respectively.

For the molecule `COc1cc(OC)c(-c2cn3ccc(N[C@H]4CC[C@H](NCc5ccccc5F)CC4)cc3n2)cc1Cl` [Example 414, (1r,4r)-N^1-(2-(5-chloro-2,4-dimethoxyphenyl)imidazo[1,2-a]pyridin-7-yl)-N^4-(2-fluorobenzyl)cyclohexane-1,4-diamine], the figures for the IC50 in the assay with A549 (setting [1]) and at SUV39H2 were 820 nM and 84.8 nM, respectively.

For the molecule `COc1cc(OC)c(-c2cn3ccc(N4CCCN(C(C)=O)CC4)cc3n2)cc1Cl` [Example 429, 1-(4-(2-(5-chloro-2,4-dimethoxyphenyl)imidazo[1,2-a]pyridin-7-yl)-1,4-diazepan-1-yl)ethanone], the IC50 in the assay on A549 (setting [1]) came out at 10000 nM; against SUV39H2 it was 16.1 nM.

Regarding `COc1cc(OC)c(-c2cn3ccc(N4CCN(c5nc(N)nc(N6CCOCC6)n5)CC4)cc3n2)cc1Cl` [Example 379, 4-(4-(2-(5-chloro-2,4-dimethoxyphenyl)imidazo[1,2-a]pyridin-7-yl)piperazin-1-yl)-6-morpholino-1,3,5-triazin-2-amine], the IC50 is 420 nM with A549 (setting [1]) and 26.9 nM on SUV39H2.

As to `COc1cc(OC)c(-c2cn3ccc(N4CCN(/N=C\c5ccncc5)CC4)cc3n2)cc1Cl` [Example 410, (Z)-4-(2-(5-chloro-2,4-dimethoxyphenyl)imidazo[1,2-a]pyridin-7-yl)-N-(pyridin-4-ylmethylene)piperazin-1-amine], the IC50 in the assay on A549 (setting [1]) is 780 nM; against SUV39H2, 8.29 nM.

In the case of `CNC1CCN(c2ncc(N3CCN(c4ccn5cc(-c6cc(Cl)c(OC)cc6OC)nc5c4)CC3)cn2)C1` (centres unmarked) [Example 401, 1-(5-(4-(2-(5-chloro-2,4-dimethoxyphenyl)imidazo[1,2-a]pyridin-7-yl)piperazin-1-yl)pyrimidin-2-yl)-N-methylpyrrolidin-3-amine dihydrochloride], the IC50 is 500 nM in the assay with A549 (A549, 72 h) and 6.81 nM against SUV39H2.

Consider `COc1cc(OC)c(-c2cn3ccc(N4CCN(c5cc(C)ccn5)CC4)cc3n2)cc1Cl` [Example 327, 2-(5-chloro-2,4-dimethoxyphenyl)-7-(4-(4-methylpyridin-2-yl)piperazin-1-yl)imidazo[1,2-a]pyridine], for which the IC50 in the assay with A549 (A549, 72 h) came to 870 nM; against SUV39H2, 46.7 nM.

Regarding `COc1cc(OC)c(-c2cn3ccc(N4CCN(c5ncc(N6CCN(C)CC6)cn5)CC4)cc3n2)cc1Cl` [Example 430, 2-(5-chloro-2,4-dimethoxyphenyl)-7-(4-(5-(4-methylpiperazin-1-yl)pyrimidin-2-yl)piperazin-1-yl)imidazo[1,2-a]pyridine], the values for the IC50 in the assay on A549 (setting [1]) and against SUV39H2 were 950 nM and 13.7 nM, respectively.

For the molecule `COc1cc(OC)c(-c2cn3ccc(N4CCN(c5cc(N6CCN(C)CC6)ncn5)CC4)cc3n2)cc1Cl` [Example 377, 2-(5-chloro-2,4-dimethoxyphenyl)-7-(4-(6-(4-methylpiperazin-1-yl)pyrimidin-4-yl)piperazin-1-yl)imidazo[1,2-a]pyridine dihydrochloride], the IC50 with A549 (A549, 72 h) came to 660 nM; on SUV39H2 it was 14.4 nM.

Take `COc1cc(OC)c(-c2cn3ccc(N4CCC(Nc5ccncn5)CC4)cc3n2)cc1Cl` [Example 374, N-(1-(2-(5-chloro-2,4-dimethoxyphenyl)imidazo[1,2-a]pyridin-7-yl)piperidin-4-yl)pyrimidin-4-amine]: the 50% inhibitory concentration (IC50) in the assay on A549 (setting [1]) is 660 nM; against SUV39H2, 31.4 nM.

Consider `COc1cc(OC)c(-c2cn3ccc(N[C@H]4CC[C@@H](NCc5ccc(C#N)cc5)CC4)cc3n2)cc1Cl` [Example 403, 4-((((1s,4s)-4-((2-(5-chloro-2,4-dimethoxyphenyl)imidazo[1,2-a]pyridine-7-yl)amino)cyclohexyl)amino)methyl) benzonitrile], for which the figures for the 50% inhibitory concentration (IC50) in the assay on A549 (setting [1]) and against SUV39H2 were 750 nM and 15.1 nM, respectively.

Turning to `COc1cc(OC)c(-c2cn3ccc(NC4CCC(NCc5ccc(F)cc5)CC4)cc3n2)cc1Cl` (centres unmarked) [Example 320, (1r,4r)-N^1-(2-(5-chloro-2,4-dimethoxyphenyl)imidazo[1,2-a]pyridin-7-yl)-N^4-(4-fluorobenzyl)cyclohexane-1,4-diamine], the IC50 in the assay with A549 (setting [1]) was found to be 430 nM; against SUV39H2 it was 95 nM.

As to `COc1cc(OC)c(-c2cn3ccc(N4CC[C@H](NCc5ccc(N(C)C(=O)OC(C)(C)C)cc5)C4)cc3n2)cc1Cl` [Example 394, (S)-tert-butyl (4-(((1-(2-(5-chloro-2,4-dimethoxyphenyl)imidazo[1,2-a]pyridin-7-yl)pyrrolidin-3-yl)amino)methyl)phenyl)(methyl)carbamate], the values for the IC50 with A549 (setting [1]) and against SUV39H2 were 800 nM and 10.3 nM, respectively.

As for `COc1cc(OC)c(-c2cn3ccc(N4CCN(Cc5cncc(C#N)c5)CC4)cc3n2)cc1Cl` [Example 339, 5-((4-(2-(5-chloro-2,4-dimethoxyphenyl)imidazo[1,2-a]pyridin-7-yl)piperazin-1-yl)methyl)nicotinonitrile], at SUV39H2, the IC50 is 35.7 nM.

In the case of `COc1cc(OC)c(-c2cn3ccc(N[C@H]4CC[C@@H](N(C)Cc5ccc(F)cc5)CC4)cc3n2)cc1Cl` [Example 342], the IC50 against SUV39H2 stood at 38.8 nM.

As to `COc1cc(OC)c(-c2cn3ccc(N[C@H]4CC[C@@H](N(C)Cc5ccccc5F)CC4)cc3n2)cc1Cl` [Example 347, bis(2,2,2-trifluoroacetate)], the IC50 against SUV39H2 was determined as 24.8 nM.

For `COc1cc(OC)c(-c2cn3ccc(N4CCN(c5cnc(N6CCC(NS(=O)(=O)C7CC7)CC6)nc5)CC4)cc3n2)cc1Cl` [Example 393, N-(1-(5-(4-(2-(5-chloro-2,4-dimethoxyphenyl)imidazo[1,2-a]pyridin-7-yl)piperazin-1-yl)pyrimidin-2-yl)piperidin-4-yl)cyclopropanesulfonamide], 28.3 nM corresponded to half-maximal inhibition against SUV39H2 (IC50).

`COc1cc(OC)c(-c2cn3ccc(N[C@H]4C[C@H]5CC[C@@H](C4)N5CC4CCCCC4)cc3n2)cc1Cl` [Example 434, 2-(5-chloro-2,4-dimethoxyphenyl)-N-((1R,3r,5S)-8-(cyclohexylmethyl)-8-azabicyclo[3.2.1]octan-3-yl)imidazo[1,2-a]pyridin-7-amine]: at SUV39H2, the IC50 is 88.7 nM.

What is called IC50 is the point on the concentration scale where inhibition reaches its midpoint.

(Values after patent publication US10508109B2 (priority 2015, dated 2019).)
